Measured values taken from patent publication US11884647B2, “Compounds and methods for targeting pathogenic blood vessels” (THE REGENTS OF THE UNIVERSITY OF CALIFORNIA, priority 2019, dated 2024).

tested on: tumor endothelial cells (LL/2 lung cancer tumor); experiment: Lung LL2 ex vivo model of tumor angiogenesis; type: cell-based, mouse; conditions: Lung LL2 ex vivo; Conc. 10 μm; 48 hrs
Method in brief: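 Read-out is live/dead fluorescence imaging (fluorescein diacetate green, propidium iodide red, 10 min at 37° C) at 2×, taken e.g. 48 h after drug addition. Fragments of mouse LL2 tumor are cultured in Matrigel with endothelial growth medium, usually 4 days, until new endothelial cells grow out, then treated.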

| Structure (SMILES) | 48 hrs (morphology observations after 48 hours) |
| --- | --- |
| CCCCCCCCCCOc1ccc(S(=O)(=O)c2cnc3ccc([S+](C)[O-])cc3c2N2CCC(N3CCC(N4CCCCC4)CC3)CC2)cc1F (centres unmarked) [compound 290, ([1,4′:1′,4″-terpiperidin]-1″-yl)-3-((4-(decyloxy)-3-fluorophenyl)sulfonyl)-6-(methylsulfinyl)quinoline] | *** (100% of endothelial cells vesicularize in cell shape) |

same assay, conditions: Lung LL2 ex vivo; Conc. 10 μm; drug treatment two days

| Structure (SMILES) | Cell death |
| --- | --- |
| CCCCCCCCCCOc1ccc(S(=O)(=O)c2cnc3ccc([S+](C)[O-])cc3c2N2CCC(N3CCC(N4CCCCC4)CC3)CC2)cc1F (centres unmarked) [compound 290, ([1,4′:1′,4″-terpiperidin]-1″-yl)-3-((4-(decyloxy)-3-fluorophenyl)sulfonyl)-6-(methylsulfinyl)quinoline] | 50% |

same assay, conditions: Lung LL2 ex vivo; Conc. 20 μm; (24 hrs)

| Structure (SMILES) | Cell death (24 hrs) | Morphology observations (24 hrs) |
| --- | --- | --- |
| CCCCCCCCCCOc1ccc(S(=O)(=O)c2cnc3ccc([S+](C)[O-])cc3c2N2CCC(N3CCC(N4CCOCC4)CC3)CC2)cc1 (centres unmarked) [compound 286, 4-(1′-(3-((4-(decyloxy)phenyl)sulfonyl)-6-(methylsulfinyl)quinolin-4-yl)-[1,4′-bipiperidin]-4-yl)morpholine] | 0% | 0 |

same assay, conditions: Lung LL2 ex vivo; Conc. 20 μm; drug treatment two days

| Structure (SMILES) | Cell death |
| --- | --- |
| COc1ccc(S(=O)(=O)c2cnc3ccc(OC(F)(F)F)cc3c2N2CCC(N3CCC(O)CC3)CC2)cc1 [compound 113, 1′-(3-((4-methoxyphenyl)sulfonyl)-6-(trifluoromethoxy)quinolin-4-yl)-[1,4′-bipiperidin]-4-ol] | 10% |

same assay, conditions: Lung LL2 ex vivo; Conc. 40 μm; drug treatment two days

| Structure (SMILES) | Cell death |
| --- | --- |
| CCc1ccc(S(=O)(=O)c2cnc3ccc(OC)cc3c2NN2CCN(C)CC2)cc1 [compound 83, 3-((4-ethylphenyl)sulfonyl)-6-methoxy-N-(4-methylpiperazin-1-yl)quinolin-4-amine] | 20% |
| CCCCOc1ccc(S(=O)(=O)c2cnc3ccc(SC)cc3c2N2CCCN(S(=O)(=O)NCC(F)(F)F)CC2)cc1 [compound 353, 4-(3-((4-butoxyphenyl)sulfonyl)-6-(methylthio)quinolin-4-yl)-N-(2,2,2-trifluoroethyl)-1,4-diazepane-1-sulfonamide] | 0% |
| CCCCOc1ccc(S(=O)(=O)c2cnc3ccc(C(=O)NCCO)cc3c2N2CCCN(C)CC2)cc1 [compound 200, 3-((4-butoxyphenyl)sulfonyl)-N-(2-hydroxyethyl)-4-(4-methyl-1,4-diazepan-1-yl)quinoline-6-carboxamide] | 30% |

same assay, conditions: Mus musculus, Endothelial cell, 48 h, read-out: Cell death

| Structure (SMILES) | cytotoxicity at 20 µM | cytotoxicity at 40 µM | cytotoxicity at 10 µM |
| --- | --- | --- | --- |
| CCCCCCCCCCCCCCCCOc1ccc(S(=O)(=O)c2cnc3ccc([S+](C)[O-])cc3c2N2CCC(N3CCN(CCO)CC3)CC2)cc1 (centres unmarked) [compound 376, 2-(4-(1-(3-((4-(hexadecyloxy)phenyl)sulfonyl)-6-(methylsulfinyl)quinolin-4-yl)piperidin-4-yl)piperazin-1-yl)ethanol] | 10% |  |  |
| CCN(c1c(S(=O)(=O)c2ccc(OC)cc2)cnc2cc(OC)c(OC)cc12)C(C)C [compound 294, N-ethyl-N-isopropyl-6,7-dimethoxy-3-((4-methoxyphenyl)sulfonyl)quinolin-4-amine] |  | 50% |  |
| CCCCOc1ccc(S(=O)(=O)c2cnc3ccc([S+](C)[O-])cc3c2N2CCC(N3CCC(CO)CC3)CC2)cc1 (centres unmarked) [compound 240, (1′-(3-((4-butoxyphenyl)sulfonyl)-6-(methylsulfinyl)quinolin-4-yl)-[1,4′-bipiperidin]-4-yl)methanol] |  | 30% |  |
| CCCCCCCCCCOc1ccc(S(=O)(=O)c2cnc3ccc([S+](C)[O-])cc3c2N2CCC(N3CCN(C)CC3)CC2)cc1 (centres unmarked) [compound 264, 3-((4-(decyloxy)phenyl)sulfonyl)-4-(4-(4-methylpiperazin-1-yl)piperidin-1-yl)-6-(methylsulfinyl)quinoline] |  |  | 20% |
| CCCCCCCCCCCCCCOc1ccc(S(=O)(=O)c2cnc3ccc([S+](C)[O-])cc3c2N2CCC(N3CCC(N4CCC(O)CC4)CC3)CC2)cc1 (centres unmarked) [compound 375, 1″-(6-(methylsulfinyl)-3-((4-(tetradecyloxy)phenyl)sulfonyl)quinolin-4-yl)-[1,4′:1′,4″-terpiperidin]-4-ol] | 50% |  |  |
| CCCCCCCCCCCCOc1ccc(S(=O)(=O)c2cnc3ccc([S+](C)[O-])cc3c2N2CCC(N3CCC(N4CCCC(O)C4)CC3)CC2)cc1F (centres unmarked) [compound 364, 1″-(3-((4-(dodecyloxy)-3-fluorophenyl)sulfonyl)-6-(methylsulfinyl)quinolin-4-yl)-[1,4′:1′,4″- terpiperidin]-3-ol] | 30% |  |  |
| CCCCCCCCCCCCOc1ccc(S(=O)(=O)c2cnc3ccc([S+](C)[O-])cc3c2N2CCC(N3CCC(N4CCN(C)CC4)CC3)CC2)cc1 (centres unmarked) [compound 341, 3-((4-(dodecyloxy)phenyl)sulfonyl)-4-(4-(4-methylpiperazin-1-yl)-[1,4′-bipiperidin]-1′-yl)-6-(methylsulfinyl)quinoline] | 80% |  |  |
| CCCCOc1ccc(S(=O)(=O)c2cnc3ccc([S+](C)[O-])cc3c2N2CCC(N3CCSCC3)CC2)cc1 (centres unmarked) [compound 245, 4-(1-(3-((4-butoxyphenyl)sulfonyl)-6-(methylsulfinyl)quinolin-4-yl)piperidin-4-yl)thiomorpholine] |  | 40% |  |
| CCCCCCCCCCCCCCOc1ccc(S(=O)(=O)c2cnc3ccc([S+](C)[O-])cc3c2N2CCC(N3CCC(N4CCC(O)CC4)CC3)CC2)cc1F (centres unmarked) [compound 373, 1″-(3-((3-fluoro-4-(tetradecyloxy)phenyl)sulfonyl)-6-(methylsulfinyl)quinolin-4-yl)-[1,4′:1′,4″- terpiperidin]-4-ol] | 20% |  |  |
| CCCCOc1ccc(S(=O)(=O)c2cnc3ccc([S+](C)[O-])cc3c2N2CCC(N3CCOCC3)CC2)cc1 (centres unmarked) [compound 235, 4-(1-(3-((4-butoxyphenyl)sulfonyl)-6-(methylsulfinyl)quinolin-4-yl)piperidin-4-yl)morpholine] |  | 10% |  |
| COc1ccc(S(=O)(=O)c2cnc3cc(OC)c(OC)cc3c2N2CCCN(CCO)CC2)cc1 [compound 323, 2-(4-(6,7-dimethoxy-3-((4-methoxyphenyl)sulfonyl)quinolin-4-yl)-1,4-diazepan-1-yl)ethan-1-ol] |  | 30% |  |
| CCN(CC)CCC(C)Nc1c(S(=O)(=O)c2ccc(OC)cc2)cnc2cc(OC)c(OC)cc12 (centres unmarked) [compound 300, N3-(6,7-dimethoxy-3-((4-methoxyphenyl)sulfonyl)quinolin-4-yl)-N1,N1-diethylbutane-1,3-diamine] |  | 20% |  |
| COc1ccc(S(=O)(=O)c2cnc3cc(OC)c(OC)cc3c2N2CCCN(C3COC3)CC2)cc1 [compound 326, 6,7-dimethoxy-3-((4-methoxyphenyl)sulfonyl)-4-(4-(oxetan-3-yl)-1,4-diazepan-1-yl)quinoline] |  | 30% |  |
| CCCCOc1ccc(S(=O)(=O)c2cnc3ccc(SC)cc3c2N2CCC(N3CCN(c4ccc(F)cc4)CC3)CC2)cc1 [compound 233, 3-((4-butoxyphenyl)sulfonyl)-4-(4-(4-(4-fluorophenyl)piperazin-1-yl)piperidin-1-yl)-6-(methylthio)quinoline] |  | 5% |  |
| CCCCCCCOc1ccc(S(=O)(=O)c2cnc3ccc(SC)cc3c2N2CCC(N3CCCC(O)C3)CC2)cc1 (centres unmarked) [compound 247, 1′-(3-((4-(heptyloxy)phenyl)sulfonyl)-6-(methylthio)quinolin-4-yl)-[1,4′-bipiperidin]-3-ol] | 60% |  |  |
| COc1ccc(S(=O)(=O)c2cnc3cc(OC)c(OC)cc3c2N2CCC(=O)N(C)CC2)cc1 [compound 328, 1-(6,7-dimethoxy-3-((4-methoxyphenyl)sulfonyl)quinolin-4-yl)-4-methyl-1,4-diazepan-5-one] |  | 30% |  |
| CCCCCCCCCCOc1ccc(S(=O)(=O)c2cnc3ccc([S+](C)[O-])cc3c2N2CCC(N3CCC(N4CCN(C)CC4)CC3)CC2)cc1 (centres unmarked) [compound 285, 3-((4-(decyloxy)phenyl)sulfonyl)-4-(4-(4-methylpiperazin-1-yl)-[1,4′-bipiperidin]-1′-yl)-6-(methylsulfinyl)quinoline] |  |  | 60% |
| CCOC(=O)c1ccc2ncc(S(=O)(=O)c3ccc(OC)cc3)c(N3CCCN(CCN4CCCCC4)CC3)c2c1 [compound 179, ethyl 3-((4-methoxyphenyl)sulfonyl)-4-(4-(2-(piperidin-1-yl)ethyl)-1,4-diazepan-1-yl)quinoline-6-carboxylate] |  |  | 60% |
| CCOC(=O)c1ccc2ncc(S(=O)(=O)c3ccc(OC)cc3)c(-n3ccnc3)c2c1 [compound 141, ethyl 4-(1H-imidazol-1-yl)-3-((4-methoxyphenyl)sulfonyl)quinoline-6-carboxylate] | 90% |  |  |
| CCOC(=O)c1ccc2ncc(S(=O)(=O)c3ccc(OC)cc3)c(N3CCC(N4CCC(CO)CC4)CC3)c2c1 [compound 175, ethyl 4-(4-(hydroxymethyl)-[1,4′-bipiperidin]-1′-yl)-3-((4-methoxyphenyl)sulfonyl)quinoline-6-carboxylate] |  | 30% |  |
| CCCCOc1ccc(S(=O)(=O)c2cnc3ccc([S+](C)[O-])cc3c2N2CCC(N3CCC(N4CCCCC4)CC3)CC2)cc1 (centres unmarked) [compound 237, 4-([1,4′:1′,4″-terpiperidin]-1″-yl)-3-((4-butoxyphenyl)sulfonyl)-6-(methylsulfinyl)quinoline] |  | 100% |  |
| CCCCCCCOc1ccc(S(=O)(=O)c2cnc3ccc(SC)cc3c2N2CCN(C3CCN(Cc4ccccc4)C3)CC2)cc1 (centres unmarked) [compound 274, 4-(4-(1-benzylpyrrolidin-3-yl)piperazin-1-yl)-3-((4-(heptyloxy)phenyl)sulfonyl)-6-(methylthio)quinoline] | 10% |  |  |
| CCCCCCCCCCCCOc1ccc(S(=O)(=O)c2cnc3ccc([S+](C)[O-])cc3c2N2CCC(N3CCC(N4CCN(CCO)CC4)CC3)CC2)cc1F (centres unmarked) [compound 368, 2-(4-(1′-(3-((4-(dodecyloxy)-3-fluorophenyl)sulfonyl)-6-(methylsulfinyl)quinolin-4-yl)-[1,4′-bipiperidin]-4-yl)piperazin-1-yl)ethanol] | 20% |  |  |
| CCOC(=O)c1ccc2ncc(S(=O)(=O)c3ccc(OC)cc3)c(N3CCCN(CCN4CCCC4)CC3)c2c1 [compound 180, ethyl 3-((4-methoxyphenyl)sulfonyl)-4-(4-(2-(pyrrolidin-1-yl)ethyl)-1,4-diazepan-1-yl)quinoline-6-carboxylate] |  |  | 70% |
